PubChem BioAssay (NCI)
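The compound was tested at five concentrations on cells cultured in 96-well plates, with a 48-hour exposure period. Definition used: TGI = concentration required for complete inhibition of growth.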

Assays:
Test in all cases: NCI anticancer screen, dose series, 48 h
[1] = tested on: MDA-N
[2] = tested on: OVCAR-5 ovarian
[3] = tested on: K-562 leukemia
[4] = tested on: SF-539 CNS
[5] = tested on: IGROV1 ovarian
[6] = tested on: RPMI-8226 leukemia
[7] = tested on: NCI-H23 lung
[8] = tested on: SK-MEL-5 melanoma
[9] = tested on: NCI/ADR-RES ovarian
[10] = tested on: BT-549 breast

SMILES	TGI [1]	TGI [2]	TGI [3]	TGI [4]	TGI [5]	TGI [6]	TGI [7]	TGI [8]	TGI [9]	TGI [10]
COc1ccc(/C=C2\N=C(c3ccccc3)N(C3Nc4cc5c(cc4S3)NC(N3C(=O)/C(=C/c4ccc(OC)cc4)N=C3c3ccccc3)S5)C2=O)cc1 (stereo not given)	> 100 µM	> 100 µM	> 100 µM	29.2 µM	> 100 µM	86.7 µM	> 100 µM	> 100 µM	48 µM	61.9 µM
Cc1ccc(-c2n[nH]c(=O)[nH]2)cc1[N+](=O)[O-]	> 100 µM	> 100 µM	> 100 µM	> 100 µM	> 100 µM	> 100 µM	> 100 µM	> 100 µM	> 100 µM	> 100 µM
COC(=O)[C@@]12CCCC(=O)[C@@H]1[C@H]1CCCC[C@H]12	> 100 µM	> 100 µM	> 100 µM	> 100 µM	> 100 µM	> 100 µM	> 100 µM	> 100 µM	> 100 µM	> 100 µM
CC(=O)OCC=C(CCl)CCC(Br)C(C)(C)Br (mixture of isomers)	> 10 µM	> 10 µM	> 10 µM	> 10 µM	> 10 µM	> 10 µM	> 10 µM	> 10 µM	> 10 µM	> 10 µM
COc1ccc(C2C(C#N)=C(S)N(C3OC(CO)C(O)C(O)C3O)C(c3ccccc3)=C2C(C)=O)cc1 (stereo not given)	> 100 µM	> 100 µM	> 100 µM	> 100 µM	> 100 µM	> 100 µM	> 100 µM	60.7 µM	> 100 µM	> 100 µM
Cc1sc2ccccc2[n+]1CCC(=O)O	> 100 µM	> 100 µM	> 100 µM	> 100 µM	> 100 µM	> 100 µM	> 100 µM	> 100 µM	> 100 µM	> 100 µM
CCOC(=O)C(CS)NC(=O)CCCCCCCC(=O)NC(CS)C(=O)OCC (stereo not given)	> 100 µM	> 100 µM	> 100 µM	> 100 µM	> 100 µM	> 100 µM	> 100 µM	> 100 µM	> 100 µM	> 100 µM
O=c1oc2ccc(Cl)cc2cc1-c1cn2cc(Cl)ccc2n1	2.79 µM	> 100 µM	> 100 µM	> 100 µM	> 100 µM	> 100 µM	> 100 µM	> 100 µM	> 85.9 µM	> 100 µM
CC1(C)Oc2ccc(NC(=O)CCC(N)C(=O)O)cc2O1 (stereo not given)	> 100 µM	> 100 µM	> 100 µM	> 100 µM	> 100 µM	> 100 µM	> 100 µM	> 100 µM	> 100 µM	> 100 µM
C[C@]12CC[C@H](O)CC1=CC[C@@H]1[C@@H]2CC[C@]2(C)/C(=N/OCCN3CCCC3)CC[C@@H]12	34.3 µM	96.6 µM	21.6 µM	28.1 µM	34.3 µM	38.4 µM	27.1 µM	28 µM	52.7 µM	37.6 µM
CC(C)CNC(=O)Cn1c(-c2ccccc2)cc2ccccc21	> 100 µM	> 100 µM	> 100 µM	> 100 µM	> 100 µM	> 100 µM	> 100 µM	> 100 µM	> 100 µM	> 100 µM
CSc1cc(N)ccc1N=Nc1ccc(S(N)(=O)=O)cc1	> 100 µM	> 100 µM	> 100 µM	93.7 µM	72.3 µM	38.4 µM	> 100 µM	30.6 µM	91.2 µM	36.4 µM
CC1(COS(=O)(=O)OCC2(C)COS(=O)(=O)OC2)COS(=O)(=O)OC1	> 100 µM	> 100 µM	> 100 µM	> 100 µM	> 100 µM	> 50.1 µM	> 89.4 µM	> 100 µM	> 100 µM	> 96.2 µM
c1ccc2c(c1)nc1n2CCSC1	> 100 µM	> 100 µM	> 100 µM	> 100 µM	> 100 µM	> 100 µM	> 100 µM	> 100 µM	> 100 µM	> 100 µM
